Assay results as given in patent US9486507B2, “Pro-coagulant compounds and methods of use thereof” (priority 2011, dated 2016).
Where “and” joins values, the source holds several entries; their conditions need not be identical. Equal values may be shown once.

Key:
[1] = test system: FVIII deficient human plasma; assay: Thrombin generation assay (TGA) in FVIII-deficient plasma; format: biochemical; parameters: key to Thrombin Above Baseline (nM): 1-10 nM (1) or 1-29 nM (2) (+); 11-20 nM (1) or 30-59 nM (2) (++); 21-30 nM (1) or 60-90 nM (2) (+++); >30 nM (1) or >90 nM (2) (++++); At or about baseline (−)
FIXa = FIXa (Homo sapiens, UniProt P00740); assay: FXa generation assay with human FIXa; format: biochemical; parameters: purchased Haematologic Technologies; settings: for Vmax: class symbols
Chain of FIXa (P00740 47-191 limits assumed): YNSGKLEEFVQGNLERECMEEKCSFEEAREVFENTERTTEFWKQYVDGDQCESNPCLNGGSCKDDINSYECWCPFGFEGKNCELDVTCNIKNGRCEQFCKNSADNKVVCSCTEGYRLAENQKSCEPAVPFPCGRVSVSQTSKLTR
Chain of FIXa (P00740 227-461 limits assumed): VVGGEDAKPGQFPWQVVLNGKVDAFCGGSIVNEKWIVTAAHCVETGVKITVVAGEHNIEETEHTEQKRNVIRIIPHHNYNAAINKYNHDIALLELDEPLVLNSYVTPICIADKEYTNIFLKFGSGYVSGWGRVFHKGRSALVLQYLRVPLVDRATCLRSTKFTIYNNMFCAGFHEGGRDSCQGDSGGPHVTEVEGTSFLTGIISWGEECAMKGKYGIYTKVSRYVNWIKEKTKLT
Source text: FXa generation was utilized to assess the capability of the compounds of the present disclosure to enhance the catalytic activities of FIXa and/or FVIIa.
To measure the catalytic activity of FIXa, FIXa was mixed with FX and phospholipids in the presence of calcium chloride. Under these conditions FIXa cleaves the zymogen FX into the active form FXa.
The generation of FXa is monitored by the change in absorbance of the reaction at 405 nm due to the presence of a cleavable FXa chromogenic substrate (S-2765; Z-D-Arg-Gly-Arg-pNA; cleavage of p-nitroaniline). […] The kit contains all the FXa generation components, however, FIXa and FX obtained from this kit are from a bovine origin and were replaced with purified human FIXa or human FVIIa and human FX (Haematologic Technologies).
The assay was also modified to enhance the screening throughput. Instead of the sequential addition, all the assay components were mixed and added simultaneously to the purified compound to be assayed. A 125 μl reaction mix of the assay components was prepared in the buffer supplied by the manufacturer (50 mM Tris 7.3, and 1% BSA). […] The reaction mix (125 ul) was then added to 25 ul of compound diluted in water in a Costar-3651 flat bottom 96-well plate. […] The absorbance was monitored over a period of 1 hour at 405 nm using a plate reader (Synergy 2, Biotek).
The 405 nm absorbance data were then analyzed to obtain the slope of the first derivative which reflects the rate of change in absorbance. The first derivative slope data for each compound concentration were plotted against the compound concentration and fitted to a four-parameter equation to obtain the EC50 and Vmax values for each compound tested.

platelets = assay: Platelet aggregation (aggregometer); format: cell-based; settings: compound 5 about 30 μM; compound 22 10 μM and 30 μM
Source text: ADP was used as a positive control for platelet aggregation.

[2] = test system: FVIII deficient human plasma; assay: Rotational thromboelastometry (ROTEM) in FVIII-deficient human plasma; format: biochemical; settings: human HemA plasma (HRF)
Method: Compounds of the present disclosure were tested by rotational thromboelastometry to evaluate coagulation parameters such as clotting time (CT), α-angle, clot formation time (CFT), maximum clot firmness (MCF). Briefly, lyophilized and citrated FVIII deficient human plasma (Siemens) was reconstituted with 1 mL of distilled water, allowed to stand for 20 min at RT and mixed well before use. Alternatively, an aliquot of citrated (non-lyophilized) FVIII deficient human plasma (HRF, George King, Precision Biologics, or real-time donors) was thawed for 10 min in a 37° C. water bath and when needed centrifuged at 2800 g for 5 min at 25° C. FVIII deficient plasma was spiked with lyophilized platelets (Helena Laboratories, final concentration 0.5×10^8 cells/ml) and compounds, FVIII, or both compound and FVIII. Dilutions of compounds of the present disclosure and controls, such as FVIII, were prepared in PBS (—Ca, —Mg). Next, 300 μl of the spiked plasma was transferred to a ROTEM cup already containing 20 μl of StarTEM (concentrated calcium chloride solution) and 20 μl of lipidated TF (American Diagnostica, final concentration 10 fM) or Kaolin (Sigma-Aldrich, final concentration 0.4 μg/ml) and recording was initiated. The cups were maintained at 37° C. during the testing.

[3] = test system: 10% FVIII-deficient human plasma; assay: Modified activated partial thromboplastin time (aPTT*) assay; format: biochemical
Method: For the activated Partial Thromboplastin Time (aPTT) assay peptides to be tested were first diluted in 10% FVIII-deficient human plasma. For the aPTT* the peptides were diluted in 10% FVIII-deficient human plasma that contained traces of hFIXa (anywhere between 0 and 8.8 nM hFIXa depending on the assay) in Tris/NaCl/BSA buffer. The peptides were incubated for 10 minutes at room temperature and then assayed for clotting on a Sysmex instrument that recorded the clotting time observed for each sample. The times were compared to those of a standard curve derived from standards with known FVIII activity (U/mL) in order to determine the clotting outcome.

[4] = test system: human HemA (severe) whole blood; assay: ROTEM in human HemA whole blood; format: biochemical; settings: 30 min pre-incubation
Method: Briefly, lyophilized and citrated FVIII deficient human plasma (Siemens) was reconstituted with 1 mL of distilled water, allowed to stand for 20 min at RT and mixed well before use. Alternatively, an aliquot of citrated (non-lyophilized) FVIII deficient human plasma (HRF, George King, Precision Biologics, or real-time donors) was thawed for 10 min in a 37° C. water bath and when needed centrifuged at 2800 g for 5 min at 25° C. FVIII deficient plasma was spiked with lyophilized platelets (Helena Laboratories, final concentration 0.5×10^8 cells/ml) and compounds, FVIII, or both compound and FVIII. Dilutions of compounds of the present disclosure and controls, such as FVIII, were prepared in PBS (—Ca, —Mg). Next, 300 μl of the spiked plasma was transferred to a ROTEM cup already containing 20 μl of StarTEM (concentrated calcium chloride solution) and 20 μl of lipidated TF (American Diagnostica, final concentration 10 fM) or Kaolin (Sigma-Aldrich, final concentration 0.4 μg/ml) and recording was initiated. The cups were maintained at 37° C. during the testing.
The only difference from the above described plasma Rotem is that the experiment is done in human HemA (severe) whole blood. No platelets were added as they are already present the in whole blood.

[5] = Precision Biologics FVIII-deficient plasma (2), first Baseline (2) series, 2.5 μM
[6] = Precision Biologics FVIII-deficient plasma (2), first Baseline (2) series, 5 μM
[7] = Precision Biologics FVIII-deficient plasma (2), first Baseline (2) series, 10 μM
[8] = FXa generation assay, 10 nM hFIXa, 100 nM hFX
[9] = Precision Biologics FVIII-deficient plasma (2), second Baseline (2) series, 2.5 μM
[10] = Precision Biologics FVIII-deficient plasma (2), second Baseline (2) series, 5 μM
[11] = Precision Biologics FVIII-deficient plasma (2), second Baseline (2) series, 10 μM
[12] = Precision Biologics FVIII-deficient plasma (2), second Baseline (2) series, 20 μM

Substance	Thrombin Above Baseline (nM) [1, 5]	Thrombin Above Baseline (nM) [1, 6]	Thrombin Above Baseline (nM) [1, 7]	Vmax (FIXa; [8])	Thrombin Above Baseline (nM) [1, 9]	Thrombin Above Baseline (nM) [1, 10]	Thrombin Above Baseline (nM) [1, 11]	also measured
PRSRTVGPGSRSASGKLTCLASYCWLFWTGIA	++ (11-20 nM (1) or 30-59 nM (2) (++))	+++ (21-30 nM (1) or 60-90 nM (2) (+++))	+++ (21-30 nM (1) or 60-90 nM (2) (+++))	(++++) ((++++)>3)				
SRIRTVGPGSRSASGKSTCLASYCWLFWTGIA				(++++) ((++++)>3)	+++ (21-30 nM (1) or 60-90 nM (2) (+++))	++++ (>30 nM (1) or >90 nM (2) (++++))	++++ (>30 nM (1) or >90 nM (2) (++++))	
PRIRTVGPGSRSASGKSTCLASYCWLFWTGIA [Compound 22]								induction of platelet aggregation (platelets): did also not induce platelet aggregation
PRIRTVSPGSRSASGKLTCLASYCWLFWTGIA	++ (11-20 nM (1) or 30-59 nM (2) (++))	+++ (21-30 nM (1) or 60-90 nM (2) (+++))	++++ (>30 nM (1) or >90 nM (2) (++++))	(++++) ((++++)>3)				
PRIRTVSPGSRSASGKSTCLASYCWLFWTGIA				(++++) ((++++)>3)	++ (11-20 nM (1) or 30-59 nM (2) (++))	+++ (21-30 nM (1) or 60-90 nM (2) (+++))	++++ (>30 nM (1) or >90 nM (2) (++++))	Thrombin Above Baseline (nM) [1, 12]: ++++ (>30 nM (1) or >90 nM (2) (++++))
PRIRTSGPGSRSASGKLTCLASYCWLFWTGIA	+ (1-10 nM (1) or 1-29 nM (2) (+))	++ (11-20 nM (1) or 30-59 nM (2) (++))	++ (11-20 nM (1) or 30-59 nM (2) (++))	(++++) ((++++)>3)				
SRIRTVSPGSRSASGKSTCLASYCWLFWTGIA				(++++) ((++++)>3)	+++ (21-30 nM (1) or 60-90 nM (2) (+++))	+++ (21-30 nM (1) or 60-90 nM (2) (+++))	++++ (>30 nM (1) or >90 nM (2) (++++))	Thrombin Above Baseline (nM) [1, 12]: ++++ (>30 nM (1) or >90 nM (2) (++++))
PSIRTVGPGSRSASGKLTCLASYCWLFWTGIA	+ (1-10 nM (1) or 1-29 nM (2) (+))	+ (1-10 nM (1) or 1-29 nM (2) (+))	+ (1-10 nM (1) or 1-29 nM (2) (+))	(++++) ((++++)>3)				
PRIRTVGPSSRSASGKLTCLASYCWLFWTGIA	+ (1-10 nM (1) or 1-29 nM (2) (+))	++ (11-20 nM (1) or 30-59 nM (2) (++))	++ (11-20 nM (1) or 30-59 nM (2) (++))	(++++) ((++++)>3)				
PRIrTVGPGSrSASGKLTCLASYCWLFWTGIA [Compound 23]				(++++) ((++++)>3)				Clotting time, sec (avg.) ([2]; 2.5 μM): 983 s; α-angle, degrees (avg.) ([2]; 2.5 μM): 13 degrees; Clotting time, sec (avg.) ([2]; 5 μM): 673 s; α-angle, degrees (avg.) ([2]; 5 μM): 22 degrees; Clotting time, sec (avg.) ([2]; 10 μM): 486 s; α-angle, degrees (avg.) ([2]; 10 μM): 32 degrees; Clotting time, sec (avg.) ([2]; 20 μM): 472 s; α-angle, degrees (avg.) ([2]; 20 μM): 39 degrees
SRIRTVGPGSRSASGKLTCLASYCWLFWTGIA	++ (11-20 nM (1) or 30-59 nM (2) (++))	+++ (21-30 nM (1) or 60-90 nM (2) (+++))	++++ (>30 nM (1) or >90 nM (2) (++++))	(++++) ((++++)>3)				
k-MeLeu-TCLASYCWLF [Compound 2]				(++++) ((++++)>3)				Clotting time ([3]; aPTT* with FIXa, 5 μM): 50.3 s; Clotting time, sec ([3]; aPTT* with FIXa, 5 μM): 51.1; sec; Clotting time ([3]; aPTT* with FIXa, 10 μM): 42.2 s; Clotting time, sec ([3]; aPTT* with FIXa, 10 μM): 42.9; sec; Clotting time ([3]; aPTT* with FIXa, 20 μM): 42.3 s; Clotting time, sec ([3]; aPTT* with FIXa, 20 μM): 42.4; sec; Clotting time ([3]; aPTT*, FIXa 1 nM): 91.4 s; Clotting time, sec ([3]; aPTT*, FIXa 1 nM): 86.8; sec; Clotting time ([3]; aPTT*, FIXa 2 nM): 49.6 s; Clotting time, sec ([3]; aPTT*, FIXa 2 nM): 51.3; sec; Clotting time ([3]; aPTT*, FIXa 4 nM): 42.7 s; Clotting time, sec ([3]; aPTT*, FIXa 4 nM): 46.0; sec; Clotting time ([3]; aPTT*, FIXa 8 nM): 37.1 s; Clotting time, sec ([3]; aPTT*, FIXa 8 nM): 34.4; sec; Vmax (mOD/min min) (FIXa; PL: No): 3.05 mOD/min min; Vmax (mOD/min min) (FIXa; PL: Yes): 4.22 mOD/min min
PRSRTVGPGSRSASGKSTCLASYCWLFWTGIA				(++++) ((++++)>3)	++ (11-20 nM (1) or 30-59 nM (2) (++))	+++ (21-30 nM (1) or 60-90 nM (2) (+++))	++++ (>30 nM (1) or >90 nM (2) (++++))	Thrombin Above Baseline (nM) [1, 12]: ++++ (>30 nM (1) or >90 nM (2) (++++))
PRIRTVGPGSRSASGKLTCLASYCWLFWTGIA [Compound 21]				(++++) ((++++)>3)				Clotting time, sec ([4]; 2.5 μM): 1,057 sec and 1,090 sec; α-angle, degrees ([4]; 2.5 μM): 32 degrees; Clotting time ([4]; 5 μM): 930 s; α-angle, degrees ([4]; 5 μM): 32 degrees; Clotting time ([4]; 10 μM): 748 s and 703 s; α-angle, degrees ([4]; 10 μM): 44 degrees and 52 degrees; Clotting time ([4]; 20 μM): 952 s and 625 s; α-angle, degrees ([4]; 20 μM): 42 degrees and 43 degrees
PRIRTVGPGSRSASGKSTCLASYCWLFWTGIA	+ (1-10 nM (1) or 1-29 nM (2) (+))	++ (11-20 nM (1) or 30-59 nM (2) (++))	+++ (21-30 nM (1) or 60-90 nM (2) (+++))	(++++) ((++++)>3)	+ (1-10 nM (1) or 1-29 nM (2) (+))	+++ (21-30 nM (1) or 60-90 nM (2) (+++))	++++ (>30 nM (1) or >90 nM (2) (++++))	Thrombin Above Baseline (nM) [1, 12]: ++++ (>30 nM (1) or >90 nM (2) (++++))
PRISTVGPGSRSASGKLTCLASYCWLFWTGIA	+ (1-10 nM (1) or 1-29 nM (2) (+))	+ (1-10 nM (1) or 1-29 nM (2) (+))	+ (1-10 nM (1) or 1-29 nM (2) (+))	(++++) ((++++)>3)				
PRIRTVGSGSRSASGKLTCLASYCWLFWTGIA	+ (1-10 nM (1) or 1-29 nM (2) (+))	+ (1-10 nM (1) or 1-29 nM (2) (+))	+ (1-10 nM (1) or 1-29 nM (2) (+))	(++++) ((++++)>3)				
PRIRSVGPGSRSASGKLTCLASYCWLFWTGIA	++ (11-20 nM (1) or 30-59 nM (2) (++))	+++ (21-30 nM (1) or 60-90 nM (2) (+++))	+++ (21-30 nM (1) or 60-90 nM (2) (+++))	(++++) ((++++)>3)				
k-MeLeu-TCLASYCWLF								Thrombin Above Baseline (nM) ([1]; HRF FVIII-deficient plasma (1), 2.5 μM): + (1-10 nM (1) or 1-29 nM (2) (+)); Thrombin Above Baseline (nM) ([1]; HRF FVIII-deficient plasma (1), 5 μM): −; Thrombin Above Baseline (nM) ([1]; HRF FVIII-deficient plasma (1), 10 μM): −; Thrombin Above Baseline (nM) ([1]; HRF FVIII-deficient plasma (1), 20 μM): + (1-10 nM (1) or 1-29 nM (2) (+)); Vmax (FIXa; FXa generation assay using human FIXa): (++++) ((++++)>3); Vmax (FIXa; FXa generation assay, 10 nM hFIXa, 100 nM hFX, listed as SEQ ID NO: 232): (+++) ((+++)>2)
SRSRTVSPGSRSASGKSTCLASYCWLFWTGIA				(++++) ((++++)>3)	+++ (21-30 nM (1) or 60-90 nM (2) (+++))	++++ (>30 nM (1) or >90 nM (2) (++++))	++++ (>30 nM (1) or >90 nM (2) (++++))	
